Assay results from patent US11857601B2, “Pharmaceutical composition for cancer treatment comprising fusion protein including IL-2 protein and CD80 protein and anticancer drug” (GI INNOVATION, INC., priority 2020, dated 2024).
Entries after “also recorded” stand apart in the source; their conditions may differ. Marks after values point to notes of the source that are not given here.

Tests used:
[1] = test system: CD8+ T cells and CD4+/FoxP3+ Treg cells; assay: Proliferation of CD8+ T cells and Treg cells in PBMCs (Exp. Ex. 10); format: cell-based, human
Method: Human PBMCs were purchased from Allcells (Lot #3014928, USA). […] CellTrace CFSE dye was used, which was reacted with the human PBMCs under a light-blocking condition at […] for 20 minutes. The cells were labeled with CFSE by being reacted with 1 μM CellTrace CFSE dye at 37° C. for 20 minutes. CFSE not bound to the cells was removed by being reacted for 5 minutes with a culture medium having a 5-fold volume of the staining reaction solution and then by being centrifuged at 1,300 rpm for 5 minutes. The CFSE-labeled PBMCs were resuspended in the culture medium (RPMI1640 medium containing 10% fetal bovine serum, 10 mM HEPES, 100 U/ml penicillin/streptomycin, 1 mM sodium pyruvate, 55 μM 2-mercaptoethanol, 1 mM non-essential amino acid, and 2 mM L-glutamine), and then added to a 96-well microplate at 1×10^5 cells per well.
The incubated cells were examined for their degree of proliferation by measuring, with FACS analysis using anti-human CD4-PE antibody (BioLegend, USA), anti-human CD8-PE/Cy7 antibody (BioLegend, USA), and anti-human FoxP3-APC antibody (BioLegend, USA), a proportion of CD8+ T cells that had not been labeled with CFSE.

[2] = test system: CT26 cells; assay: mGI-101 and Guadecitabine in CT26 allotransplanted tumor model; format: in vivo, BALB/c mice; settings: for tumor size level vs control: day 10, alone or + Guadecitabine
Description: CT26 cells were purchased from ATCC (USA) and cultured in RPMI1640 medium (Gibco) containing 10% FBS (Gibco) and 1% antibiotic/antifungal agent (Gibco). The cultured cells were harvested using trypsin (Gibco) and then suspended in PBS. In order to establish an allotransplanted tumor model, 5×10^5 of CT26 cells were subcutaneously injected into the right flank of BALB/c female mice (8-week-old) (FIG. 97).
The tumor grafts of the mice were identified about day 7 after cell inoculation, and the mice were randomly assigned based on tumor volume (50-120 mm^3), each group including 13 mice.
Clinical symptoms such as a disease and a behavioral change were observed once a day during the test period, and deceased animals were identified, and the mice were sacrificed when the tumor size reached a size of 4,000 mm^3. The size of the CT26 solid cancer was measured using a tumor 3D scanner (TM900, Peria, Belgium). […] The anti-tumor efficacy was evaluated as compared with the vehicle control. All statistical calculations were performed using Prism 8.0 (Graph Pad Software Inc, USA). The comparison of tumor volume measurements was made through two-way analysis of variance followed by Tukey's multiple comparison test. A p value of less than 0.05 was considered significant.

[3] = test system: CT26 (mouse colon carcinoma) cells; assay: mGI-101 and Galunisertib in CT26 allotransplanted tumor model; format: in vivo, BALB/cAnHsd mice; settings: mean ± SD, mGI-101 3 mg/kg IP, Galunisertib 75 mg/kg PO
Method: 6-week-old male BALB/cAnHsd mice were purchased and used for the test.
The tumor size was measured three times a week for 3 weeks from the day of start of administration of the test substance. The major axis and minor axis of the tumor were measured using a caliper, and the tumor size (tumor volume, TV) was calculated using the following equations. TV (mm^3)=(W^2×L)/2 [Equation 1]

[4] = test system: CT-26 cancer cell line; assay: mGI101 in mice transplanted with CT-26 (Exp. Ex. 19); format: in vivo, BALB/c mice
[5] = test system: EMT6 cells; assay: mGI-101 and Paclitaxel in EMT6 allotransplanted tumor model; format: in vivo, BALB/c mice
Method: EMT6 cells were purchased from ATCC (USA) and cultured in Waymouth MB 751/1 medium (WELGENE) containing 10% FBS (Gibco) and 1% antibiotic/antifungal agent (Gibco). The cultured cells were harvested using trypsin (Gibco), and then a high-concentration cell suspension (2×10^6 cells/0.4 mL) for 10 mice was prepare with PBS and stored on ice until injected into mice. In order to establish an allotransplanted tumor model, the skin was incised slightly away from the 4th nipple position from the upper right of the ventral region of BALB/c female mice (7-week-old), and the location of mammary fat pad at the incised site was identified, and then EMT6 cell line prepared inside the mammary fat pad was injected at 2×10^5 cells/40 uL/head.
A certain period of time after cell inoculation of the tumor grafts of the mice, the tumor volume was measured for animals with no abnormalities in the health condition of the animals, and the subjects were selected so that the average of each group reached less than 70-100 mm^3, and the selected animals were assigned as evenly as possible based on tumor volume and body weight, each group including 10 animals. As shown in Table 24 and FIG. 106, the test groups were configured and the test substances were administered.
Clinical symptoms such as a disease and a behavioral change were observed once a day during the test period, and deceased animals were identified, and the mice were sacrificed when the tumor size reached a size of 4,000 mm^3.
The tumor volume before administration of each subject was set as the value measured at the time of grouping, and the anti-tumor efficacy was evaluated as compared with the vehicle control.
All statistical calculations were performed using Prism 8.0 (Graph Pad Software Inc, USA). The comparison of tumor volume measurements was made through two-way analysis of variance followed by Tukey's multiple comparison test. A p value of less than 0.05 was considered significant.

GI101: fusion protein: human CD80 fragment, Ig hinge, Fc domain, linker, IL-2 variant (2M) (R38A, F42A); SEQ ID NO: 9
proportion of CD8+ T cells ([1]; anti-CD3ε 1 μg/ml, 7 days, compared with no stimulus, anti-CD3 antibody alone and GI101C1): significant increase
proliferation of CD4+/FoxP3+ Treg cells ([1]; compared with no stimulus and anti-CD3 antibody alone): significant increase

mGI101: fusion protein: mouse CD80, Ig hinge, Fc domain, linker, IL-2 variant (2M) (R38A, F42A); SEQ ID NO: 15
tumor size level vs control ([2]; mGI-101 0.6 mg/kg): tended to be lower
tumor size level vs control ([2]; mGI-101 3 mg/kg): statistically significantly lower
tumor growth inhibitory effect (individual tumor sizes) ([2]; mouse, in vivo): exhibited the tumor growth inhibitory effect
Tumor size ([3]; Day 0): 61.96 ± 11.81 mm^3
Tumor growth inhibition ([3]; Day 2): 21.91 ± 53.41%
Tumor size ([3]; Day 2): 177.83 ± 78.22 mm^3
Tumor growth inhibition ([3]; Day 4): 46.07 ± 35.1 %
Tumor size ([3]; Day 4): 224.56 ± 105.31** mm^3
Tumor growth inhibition ([3]; Day 7): 46.48 ± 36.39 (9) %
Tumor size ([3]; Day 7): 291.81 ± 155.23 (9)* mm^3
tumor volume / tumor size ([4]; 6 mg/kg i.v., vs negative control): significant inhibition of tumor size
tumor growth inhibition rate / anticancer efficacy ([4]; compared with combination of mCD80 4.9 mg/kg and Fc-IL-2v (GI101C2) 2.8 mg/kg): excellent tumor growth inhibition rate; also recorded: excellent anticancer efficacy
tumor inhibitory efficacy ([4]; compared with respective mCD80 and IL-2v single formulations): had tumor inhibitory efficacy
number of mice with tumor growth inhibition rate of 30% or more ([5]; EMT6, 10 animals per group): 6 mice
number of mice with tumor growth inhibition rate of 50% or more ([5]; EMT6, 10 animals per group): 5 mice
number of mice with tumor growth inhibition rate of 80% or more ([5]; EMT6, 10 animals per group): 5 mice
tumor size level vs control ([5]; day 11, mGI-101 3 mg/kg i.v. QW, Paclitaxel 10 mg/kg i.p. 7 consecutive days): statistically significantly lower
mice with complete remission ([5]; day 13, 10 animals per group): 2 mice
tumor size vs control ([5]; day 13, mGI-101 3 mg/kg i.v. QW, Paclitaxel 10 mg/kg i.p. 7 consecutive days): statistically significantly lower
